What was measured:
Safety assessment = assay type: in vivo, human; details: healthy adult subjects
thrombin generation = assay: Technothrombin thrombin generation assay; assay type: in vivo, human; details: for Endogenous thrombin potential A max / Endogenous thrombin potential A min / Lag time A max / Lag time A min / Peak thrombin A max / Peak thrombin A min / Time to peak A max / Time to peak A min / Velocity A max / Velocity A min: mean ± SD
[1] = cited from earlier work
[2] = test system: activated partial thromboplastin time; assay: Activated partial thromboplastin time; assay type: in vivo, human; details: for LS mean aPTT at 2 h after dosing: ANCOVA; for Activated partial thromboplastin time A max / Activated partial thromboplastin time A min / Activated partial thromboplastin time AUEτ: mean ± SD; for Activated partial thromboplastin time T max: median (minimum, maximum)
[3] = Plasma pharmacokinetics in healthy subjects; details: for T max: median (minimum, maximum); for AUC: AUCτ, 24 h dosing interval; for Cmax: C max, healthy subjects
[4] = edoxaban after switching from dabigatran etexilate, day 4 (treatment 3)
[5] = edoxaban after switching from rivaroxaban, day 4 (treatment 2)
[6] = edoxaban alone, day 1 (treatment 1)
[7] = edoxaban alone, day 4 (treatment 1)
[8] = day 4, edoxaban after switching from dabigatran etexilate (treatment 3)
[9] = day 4, edoxaban after switching from rivaroxaban (treatment 2)
[10] = day 4, edoxaban alone (treatment 1)

O=C(NC[C@H]1CN(c2ccc(N3CCOCC3=O)cc2)C(=O)O1)c1ccc(Cl)s1 [rivaroxaban]
tolerability (Safety assessment): well tolerated

CN1CCc2nc(C(=O)N[C@@H]3C[C@@H](C(=O)N(C)C)CC[C@@H]3NC(=O)C(=O)Nc3ccc(Cl)cn3)sc2C1 [Edoxaban, edoxaban]
ETP Amax (thrombin generation; day 4, continual edoxaban treatment (treatment 1)): 3644 ± 434 mN·min
Endogenous thrombin potential A max (thrombin generation; [4]): 3338 ± 575 nM·min
Endogenous thrombin potential A min (thrombin generation; [4]): 1239 ± 828 nM·min
Lag time A max (thrombin generation; [4]): 55.3 ± 16.2 min
Lag time A min (thrombin generation; [4]): 20.5 ± 3.60 min
Peak thrombin A max (thrombin generation; [4]): 302 ± 77.0 nM
Peak thrombin A min (thrombin generation; [4]): 48.9 ± 25.2 nM
Time to peak A max (thrombin generation; [4]): 74.0 ± 12.4 min
Time to peak A min (thrombin generation; [4]): 27.5 ± 7.94 min
Velocity A max (thrombin generation; [4]): 46.5 ± 25.7 nM/min
Velocity A min (thrombin generation; [4]): 2.13 ± 1.35 nM/min
Endogenous thrombin potential A max (thrombin generation; [5]): 3680 ± 462 nM·min
Endogenous thrombin potential A min (thrombin generation; [5]): 1506 ± 798 nM·min
Lag time A max (thrombin generation; [5]): 39.9 ± 9.96 min
Lag time A min (thrombin generation; [5]): 15.8 ± 3.54 min
Peak thrombin A max (thrombin generation; [5]): 324 ± 123 nM
Peak thrombin A min (thrombin generation; [5]): 49.2 ± 31.9 nM
Time to peak A max (thrombin generation; [5]): 59.4 ± 14.6 min
Time to peak A min (thrombin generation; [5]): 22.0 ± 5.15 min
Velocity A max (thrombin generation; [5]): 67.4 ± 46.6 nM/min
Velocity A min (thrombin generation; [5]): 3.04 ± 2.88 nM/min
Endogenous thrombin potential A max (thrombin generation; [6]): 3635 ± 432 nM·min
Endogenous thrombin potential A min (thrombin generation; [6]): 1520 ± 754 nM·min
Lag time A max (thrombin generation; [6]): 38.3 ± 8.59 min
Lag time A min (thrombin generation; [6]): 15.8 ± 2.25 min
Peak thrombin A max (thrombin generation; [6]): 323 ± 98.1 nM
Peak thrombin A min (thrombin generation; [6]): 45.7 ± 25.5 nM
Time to peak A max (thrombin generation; [6]): 58.6 ± 12.6 min
Time to peak A min (thrombin generation; [6]): 22.2 ± 4.13 min
Velocity A max (thrombin generation; [6]): 61.4 ± 31.3 nM/min
Velocity A min (thrombin generation; [6]): 2.62 ± 1.92 nM/min
Endogenous thrombin potential A max (thrombin generation; [7]): 3644 ± 434 nM·min
Endogenous thrombin potential A min (thrombin generation; [7]): 1474 ± 755 nM·min
Lag time A max (thrombin generation; [7]): 37.8 ± 7.09 min
Lag time A min (thrombin generation; [7]): 16.9 ± 2.41 min
Peak thrombin A max (thrombin generation; [7]): 315 ± 90.6 nM
Peak thrombin A min (thrombin generation; [7]): 43.4 ± 25.1 nM
Time to peak A max (thrombin generation; [7]): 58.5 ± 12.2 min
Time to peak A min (thrombin generation; [7]): 23.7 ± 4.29 min
Velocity A max (thrombin generation; [7]): 58.4 ± 31.9 nM/min
Velocity A min (thrombin generation; [7]): 2.40 ± 1.89 nM/min
oral bioavailability [1]: approximately 62%
terminal elimination half-life [1]: 10 to 14 h
time to peak plasma concentration and peak antithrombotic effect ([1]; oral): 1 to 2 h
LS mean aPTT at 2 h after dosing ([2]; day 4, after switching from dabigatran etexilate to edoxaban (treatment 3)): 47.6 s
Activated partial thromboplastin time A max [2, 8]: 50.8 ± 8.92 s
Activated partial thromboplastin time A min [2, 8]: 30.0 ± 2.20 s
Activated partial thromboplastin time AUEτ [2, 8]: 863 ± 87.3 s·h
Activated partial thromboplastin time T max [2, 8]: 1.00 (0.50, 3.00) h
Activated partial thromboplastin time A max [2, 9]: 36.5 ± 3.94 s
Activated partial thromboplastin time A min [2, 9]: 28.4 ± 2.13 s
Activated partial thromboplastin time AUEτ [2, 9]: 738 ± 58.6 s·h
Activated partial thromboplastin time T max [2, 9]: 1.00 (0.50, 4.00) h
LS mean aPTT at 2 h after dosing [2, 10]: 35.0 s
Activated partial thromboplastin time A max [2, 10]: 35.9 ± 3.15 s
Activated partial thromboplastin time A min [2, 10]: 27.7 ± 1.70 s
Activated partial thromboplastin time AUEτ [2, 10]: 725 ± 48.8 s·h
Activated partial thromboplastin time T max [2, 10]: 1.50 (0.50, 4.00) h
time to peak effect on aPTT ([2]; edoxaban alone (treatment 1), return to baseline by 24 h): 1 to 2 h
T max ([3]; edoxaban day 4 after switching from dabigatran etexilate (treatment 3)): 1.00 (0.50, 3.00) h
T max ([3]; edoxaban day 4 after switching from rivaroxaban (treatment 2)): 1.00 (0.50, 2.00) h
Tmax ([3]; human, in vivo, 60 mg): 1 h
AUC ([3]; human, in vivo, 60 mg, edoxaban alone, day 1 (treatment 1), mean ± SD): 1780 ± 319 ng·h/mL
AUC ([3]; human, in vivo, 60 mg, edoxaban alone, day 4 (treatment 1), mean ± SD): 1990 ± 403 ng·h/mL
AUC ([3]; human, in vivo, 60 mg, edoxaban day 4 after switching from dabigatran etexilate (treatment 3), mean ± SD): 1680 ± 475 ng·h/mL
AUC ([3]; human, in vivo, 60 mg, edoxaban day 4 after switching from rivaroxaban (treatment 2), mean ± SD): 1740 ± 353 ng·h/mL
Cmax ([3]; human, in vivo, 60 mg, edoxaban 60 mg on day 4 after switching from dabigatran etexilate 150 mg twice daily for 3 days (treatment 3), mean ± SD): 280 ± 124 ng/mL
Cmax ([3]; human, in vivo, 60 mg, edoxaban 60 mg on day 4 after switching from rivaroxaban 20 mg once daily for 3 days (treatment 2), mean ± SD): 288 ± 113 ng/mL
Cmax ([3]; human, in vivo, 60 mg, edoxaban 60 mg once daily alone, day 1 (treatment 1), mean ± SD): 309 ± 97.2 ng/mL
Cmax ([3]; human, in vivo, 60 mg, edoxaban 60 mg once daily alone, day 4 (treatment 1), mean ± SD): 303 ± 87.7 ng/mL
concentration at 1 day ([3]; human, in vivo, 60 mg, C trough, edoxaban alone, day 1 (treatment 1), mean ± SD): 14 ± 5.44 ng/mL
concentration at 4 day ([3]; human, in vivo, 60 mg, C trough, edoxaban alone, day 4 (treatment 1), mean ± SD): 15.5 ± 3.98 ng/mL
concentration at 4 day ([3]; human, in vivo, 60 mg, C trough, edoxaban day 4 after switching from dabigatran etexilate (treatment 3), mean ± SD): 12.8 ± 4.13 ng/mL
concentration at 4 day ([3]; human, in vivo, 60 mg, C trough, edoxaban day 4 after switching from rivaroxaban (treatment 2), mean ± SD): 13.4 ± 5 ng/mL
tolerability (Safety assessment): well tolerated

CCCCCCOC(=O)NC(=N)c1ccc(NCc2nc3cc(C(=O)N(CCC(=O)OCC)c4ccccn4)ccc3n2C)cc1 [dabigatran etexilate]
tolerability (Safety assessment): well tolerated

Reference: publication PMC4740573 (Clinical Drug Investigation, 2015)
